# Measurements: article PMC4457802 (PLoS ONE, 2015)
# Key:
# [1] = system: S. pneumoniae (30 clinical isolates); format: cell-based, Streptococcus pneumoniae; conditions: for MIC S. pneumoniae (30 clinical isolates): broth microdilution, CAMHB, 20-24hr, 37°C, 5% CO2, lowest concentration that completely inhibits growth; for MIC S. pneumoniae (30 clinical isolates), in parentheses: numbers in parentheses are micromolar concentrations, unit of the source corrected
# Text: (§1) Thirty (30) Pneumococcal clinical isolates were obtained from University of Malaya Medical Centre (UMMC). For broad-spectrum activity of AMPs, E. coli ATCC 25922, Staphylococcus aureus ATCC 25923, P. aeruginosa ATCC 15442, Acinetobacter baumanii ATCC 15308, and one clinical isolate of each methicillin resistant S. aureus (MRSA), […], citrobacter spp., and K. pneumoniae were used in this study.
# (§2) The minimum inhibitory concentration (MIC) of the peptides against 30 pneumococcal isolates was determined by broth microdilution protocol as indicated by the CLSI guidelines (Clinical and Laboratory Standards Institute). Briefly, bacterial strains were grown for 18–24 hr at 37°C under 5% CO2. Direct suspension of the colonies were made in cationically-adjusted Müeller-Hinton broth (CAMHB) and adjusted to OD 625 0.08–0.1 which corresponds to 1 ~ 2 x10^8 CFU/ml followed by serial ten-fold dilutions to give 1x10^6 CFU/ml. 50μl of bacterial suspension were added to 96-well round bottom microtiter plates containing equal volume of peptides at different concentrations (1.95, 3.90, 7.81, 15.62, 31.25, 62.5, 125, 250μg/ml) and the 96-well plates were incubated for 20-24hr at 37°C in the presence of 5% CO2.
# citrobacter spp = format: cell-based; conditions: numbers in parentheses are micromolar concentrations
# Text: as §1, §2
# E. coli ATCC 25922 = format: cell-based; conditions: numbers in parentheses are micromolar concentrations; unit of the source corrected
# Text: as §1, §2
# [2] = system: Acinetobacter baumanii ATCC 15308; format: cell-based; conditions: numbers in parentheses are micromolar concentrations
# Text: as §1, §2
# [3] = system: Methicillin resistant S. aureus (MRSA); format: cell-based; conditions: numbers in parentheses are micromolar concentrations; unit of the source corrected
# Text: as §1, §2
# Enterococcus cloacae = format: cell-based; conditions: numbers in parentheses are micromolar concentrations
# Text: as §1, §2
# P. aeruginosa ATCC 15442 = format: cell-based; conditions: numbers in parentheses are micromolar concentrations; unit of the source corrected
# Text: as §1, §2
# K. pneumoniae = format: cell-based; conditions: numbers in parentheses are micromolar concentrations
# Text: as §1, §2
# S. aureus ATCC 25923 = format: cell-based, Staphylococcus aureus; conditions: numbers in parentheses are micromolar concentrations; unit of the source corrected
# Text: as §1, §2
# [4] = system: NL-20 normal lung cell line; format: cell-based, human
# Procedure: (§3) CellTiter 96 AQueous Non-Radioactive Cell Proliferation assay (Promega, USA) was used to evaluate the cytotoxic effects of peptides. WRL-68 (ATCC CL-48) and NL-20 (ATCC CRL2503) cell lines were purchased from American Type Culture Collection (ATCC, USA). The cell lines were grown in Dulbecco's modified Eagle's medium (DMEM) and Ham’s F-12 medium, respectively. Cells were supplemented with 10% (v/v) fetal bovine serum (FBS) in T75 flasks and incubated at 37°C in the presence of 5% CO2. Cells were seeded into 96-well plates at a density of 1×10^4 and 3×10^4 cells per well, respectively. Peptides were added to the wells at different concentrations (1.95, 3.90, 7.81, 15.62, 31.25, 62.5, 125, and 250μg) and plates were incubated at 37°C under 5% CO2 for 24, 48, and 72 hrs. Medium with and without cells was used as positive and negative controls, respectively. After incubation, 20μl of the reagent were added to each well and incubated for 1 hr at 37°C under 5% CO2. Metabolically active cells convert the yellow MTS to purple formazan, allowing for monitoring of the reaction. The absorbance was monitored at 490 nm using GloMax Multi Detection System (Promega, USA). The percentage of viable cells was calculated according to the following formula: 100 (AT-AB/AC-AB), where AT and AC are the absorbance of treated and control cells (100% survival). AB is the absorbance of medium alone. The assay was done in triplicate.
# [5] = system: WRL-68 normal liver cell line; format: cell-based, human
# Procedure: as §3
# Streptococcus pneumoniae = test: Time killing assay; format: cell-based; conditions: 1×MIC; for time to completely kill 10^6 CFU/ml of S. pneumoniae / time to eradicate susceptible pneumococcal isolate: MHB, 37°C, triplicate; for time to completely kill 10^6 CFU/ml of S. pneumoniae: sampled every 30 min to 240 min; for time to totally eliminate resistant strain: failed up to 240 min of treatment
# Procedure: The bactericidal activities of peptides were performed as described previously. […] 10μl of bacterial suspensions were removed at various time intervals (30, 60, 90, 120, 150, 180, 210, and 240 min), serially diluted in PBS and plated onto Columbia agar with 5% sheep blood for 20-24hr at 37°C in the presence of 5% CO2 to obtain viable colonies. Erythromycin and ceftriaxone were used as positive control and the assay was performed in triplicate.
Molecule,MIC S. pneumoniae (30 clinical isolates) [1] [µg/mL],"MIC S. pneumoniae (30 clinical isolates), in parentheses [1] [µg/mL]","MIC citrobacter spp, in parentheses (citrobacter spp)","MIC E. coli ATCC 25922, in parentheses (E. coli ATCC 25922) [µg/mL]","MIC Acinetobacter baumanii ATCC 15308, in parentheses [2]","MIC MRSA, in parentheses [3] [µg/mL]","MIC Enterococcus cloacae, in parentheses (Enterococcus cloacae)","MIC P. aeruginosa ATCC 15442, in parentheses (P. aeruginosa ATCC 15442) [µg/mL]","MIC K. pneumoniae, in parentheses (K. pneumoniae)","MIC S. aureus ATCC 25923, in parentheses (S. aureus ATCC 25923) [µg/mL]","concentration at which toxic, NL-20 [4] [µg/mL]","concentration at which toxic, WRL-68 [5] [µg/mL]",time to completely kill 10^6 CFU/ml of S. pneumoniae (Streptococcus pneumoniae) [min],time to totally eliminate resistant strain (Streptococcus pneumoniae) [min],time to eradicate susceptible pneumococcal isolate (Streptococcus pneumoniae) [min]
"FLGGLIKWKWPWWPWRR-NH2 [RN7-IN10, hybrid peptide of ranalexin and indolicidin]",7.81 to 15.62,7.81 to 15.6,>250 (>108) micromolar,7.81,31.25 (13.51) micromolar,7.81,>250 (>108) micromolar,31.2,>250 (>108) micromolar,7.81,≥ 125,≥ 62.5,30,–,–
"RRPWRWPWWPWRR-NH2 [IN2, indolicidin analog]",31.25 to 62.5,31.2 to 62.5,>250 (>123) micromolar,31.2,>250 (>123) micromolar,31.2,>250 (>123) micromolar,31.2,>250 (>123) micromolar,31.2,–,–,210,–,–
"CC[C@H]1OC(=O)[C@H](C)[C@@H](O[C@H]2C[C@@](C)(OC)[C@@H](O)[C@H](C)O2)[C@H](C)[C@@H](O[C@@H]2O[C@H](C)C[C@H](N(C)C)[C@H]2O)[C@](C)(O)C[C@@H](C)C(=O)[C@H](C)[C@@H](O)[C@]1(C)O [erythromycin, reference compound]",–,–,–,–,–,–,–,–,–,–,–,–,–,> 240,120
"FLGGLIKWWPWRR-NH2 [RN7-IN6, hybrid peptide of ranalexin and indolicidin]",7.81 to 15.62,7.81 to 15.6,>250 (>145.84) micromolar,7.81,31.25 (18.23) micromolar,7.81,>250 (>145.84) micromolar,31.2,>250 (>145.84) micromolar,7.81,≥ 125,≥ 62.5,240,–,–
"FLGGLIKPWWPWRR-NH2 [RN7-IN7, hybrid peptide of ranalexin and indolicidin]",31.25 to 62.5,31.2 to 62.5,>250 (>138) micromolar,31.2,125 (69) micromolar,31.2,>250 (>138) micromolar,62.5,>250 (>138) micromolar,31.2,–,–,120,–,–
"LLPWKWPWWKWRR-NH2 [IN1, indolicidin analog]",31.25 to 62.5,31.2 to 62.5,>250 (>129) micromolar,31.2,>250 (129) micromolar,31.2,>250 (>129) micromolar,31.2,>250 (>129) micromolar,31.2,–,–,210,–,–
"FLGGLIKWPWWPWRR-NH2 [RN7-IN8, hybrid peptide of ranalexin and indolicidin]",7.81 to 15.62,7.81 to 15.6,>250 (>125) micromolar,7.81,62.5 (31.3) micromolar,7.81,>250 (>125) micromolar,31.2,>250 (>125) micromolar,7.81,≥ 125,≥ 62.5,120,–,–
"CO/N=C(\C(=O)N[C@@H]1C(=O)N2C(C(=O)O)=C(CSc3nc(=O)c(=O)[nH]n3C)CS[C@H]12)c1csc(N)n1 [ceftriaxone, reference compound]",–,–,–,–,–,–,–,–,–,–,–,–,–,> 240,150
"RRPWRWPRWPWRR-NH2 [IN3, indolicidin analog]",–,62.5,>250 (>125) micromolar,31.2,>250 (>125) micromolar,62.5,>250 (>125) micromolar,31.2,>250 (>125) micromolar,31.2,–,–,150,–,–
